≈ marks a conversion by molar mass, not a printed value. One block for each molecule: values may come before it.
Assays:
[1] = AUC (0-24h) in mouse at 20 mg/kg, po; assay type: ADME, organism-based; set-up: time < 24 hr, dose 20 mg/kg, route oral; conditions: plasma
[2] = system: A549; test: Inhibition of A549 cell migration by microdroplet migration assay; assay type: functional, cell-based; conditions: Homo sapiens
[3] = biological target: Proto-oncogene tyrosine-protein kinase Src (Homo sapiens, UniProt P12931)
Sequence of Proto-oncogene tyrosine-protein kinase Src (P12931 2-536 limits assumed): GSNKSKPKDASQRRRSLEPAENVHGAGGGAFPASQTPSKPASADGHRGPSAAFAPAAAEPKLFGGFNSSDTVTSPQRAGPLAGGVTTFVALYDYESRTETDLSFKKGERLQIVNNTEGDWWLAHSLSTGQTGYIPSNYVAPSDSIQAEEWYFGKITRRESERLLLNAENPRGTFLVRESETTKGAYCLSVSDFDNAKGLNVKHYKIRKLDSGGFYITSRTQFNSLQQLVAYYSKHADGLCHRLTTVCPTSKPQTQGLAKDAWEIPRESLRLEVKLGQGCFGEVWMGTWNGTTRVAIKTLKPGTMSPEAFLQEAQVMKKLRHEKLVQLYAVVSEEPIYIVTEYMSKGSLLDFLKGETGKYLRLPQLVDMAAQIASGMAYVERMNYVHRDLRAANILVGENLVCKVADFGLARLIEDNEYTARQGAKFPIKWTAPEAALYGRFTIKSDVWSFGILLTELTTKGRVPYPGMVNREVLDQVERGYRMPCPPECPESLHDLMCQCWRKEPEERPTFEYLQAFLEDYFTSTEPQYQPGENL
Description: Inhibition of human c-Src in NIH3T3 cells

[4] = biological target: Vascular endothelial growth factor receptor 2 (Homo sapiens, UniProt P35968); test: Inhibition of KDR
Sequence of Vascular endothelial growth factor receptor 2 (P35968 whole entry): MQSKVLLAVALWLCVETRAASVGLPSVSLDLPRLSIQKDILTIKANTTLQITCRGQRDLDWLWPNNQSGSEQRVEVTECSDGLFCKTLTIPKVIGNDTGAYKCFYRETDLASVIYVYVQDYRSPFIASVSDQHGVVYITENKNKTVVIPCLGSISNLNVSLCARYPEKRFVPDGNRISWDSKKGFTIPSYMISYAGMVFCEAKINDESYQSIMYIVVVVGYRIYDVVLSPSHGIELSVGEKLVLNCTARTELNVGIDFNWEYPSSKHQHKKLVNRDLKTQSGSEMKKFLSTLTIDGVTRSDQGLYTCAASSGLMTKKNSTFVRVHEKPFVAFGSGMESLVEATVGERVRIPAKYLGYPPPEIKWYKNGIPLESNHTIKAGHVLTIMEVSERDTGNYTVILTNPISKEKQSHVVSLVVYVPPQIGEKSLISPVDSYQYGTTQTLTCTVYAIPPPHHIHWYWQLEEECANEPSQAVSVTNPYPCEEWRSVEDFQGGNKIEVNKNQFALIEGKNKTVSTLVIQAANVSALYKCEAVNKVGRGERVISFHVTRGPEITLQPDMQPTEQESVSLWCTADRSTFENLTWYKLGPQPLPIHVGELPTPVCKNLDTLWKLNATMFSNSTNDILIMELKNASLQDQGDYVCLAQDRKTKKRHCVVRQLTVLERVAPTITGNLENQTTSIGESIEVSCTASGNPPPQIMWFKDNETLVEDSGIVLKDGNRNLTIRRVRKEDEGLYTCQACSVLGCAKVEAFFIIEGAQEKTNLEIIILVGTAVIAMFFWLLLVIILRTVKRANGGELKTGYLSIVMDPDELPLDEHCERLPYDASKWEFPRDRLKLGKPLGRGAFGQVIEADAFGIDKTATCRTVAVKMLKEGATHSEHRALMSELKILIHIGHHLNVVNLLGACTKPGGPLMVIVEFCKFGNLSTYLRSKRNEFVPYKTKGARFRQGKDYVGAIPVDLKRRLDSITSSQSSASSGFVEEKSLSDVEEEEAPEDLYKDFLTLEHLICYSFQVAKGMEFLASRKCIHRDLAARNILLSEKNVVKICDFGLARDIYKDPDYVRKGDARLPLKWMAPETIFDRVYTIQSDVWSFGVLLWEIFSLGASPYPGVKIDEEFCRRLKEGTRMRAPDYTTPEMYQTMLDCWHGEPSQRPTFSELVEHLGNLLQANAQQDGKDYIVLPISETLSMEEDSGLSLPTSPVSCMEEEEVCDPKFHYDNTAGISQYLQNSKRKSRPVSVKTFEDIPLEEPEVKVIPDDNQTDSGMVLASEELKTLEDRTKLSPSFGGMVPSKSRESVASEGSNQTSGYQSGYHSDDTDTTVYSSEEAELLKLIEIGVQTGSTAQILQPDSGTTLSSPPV

[5] = Dissociation constant, pKa of the basic side chain of compound; assay type: physicochemical
[6] = Lipophilicity, log D at pH 7.4; assay type: physicochemical; conditions: buffer
[7] = Aqueous solubility at pH 7.4; assay type: physicochemical
[8] = Percent of unbound ligand in rat plasma; assay type: ADME, organism-based
[9] = Clearance in female rat at 20 mg/kg, po and 2 mg/kg, iv; assay type: ADME, organism-based; conditions: in vivo
[10] = species: Canis familiaris; test: (§1) Half life in male dog; assay type: ADME, organism-based, Canis lupus familiaris; conditions: in vivo
[11] = species: Canis familiaris; test: (§2) Volume of distribution in male dog; assay type: ADME, organism-based, Canis lupus familiaris; conditions: in vivo
[12] = Bioavailability in male dog; assay type: ADME, organism-based, Canis lupus familiaris; conditions: in vivo
[13] = Bioavailability in female rat at 20 mg/kg, po and 2 mg/kg, iv; assay type: ADME, organism-based; conditions: in vivo
[14] = Volume of distribution in female rat at 20 mg/kg, po and 2 mg/kg, iv; assay type: ADME, organism-based; conditions: in vivo, read-out: Vdss
[15] = Percent of unbound ligand in dog plasma; assay type: ADME, organism-based, Canis lupus familiaris
[16] = biological target: Tyrosine-protein kinase CSK (Homo sapiens, UniProt P41240); test: Inhibition of recombinant CSK by ELISA
[17] = biological target: Tyrosine-protein kinase Yes (Homo sapiens, UniProt P07947); test: Inhibition of recombinant C-YES by ELISA
[18] = biological target: Vascular endothelial growth factor receptor 1 (Homo sapiens, UniProt P17948); test: Inhibition of recombinant FLT1 by ELISA
[19] = biological target: Vascular endothelial growth factor receptor 3 (Homo sapiens, UniProt P35916); test: Inhibition of FLT4 by ELISA
Sequence of Vascular endothelial growth factor receptor 3 (P35916 whole entry): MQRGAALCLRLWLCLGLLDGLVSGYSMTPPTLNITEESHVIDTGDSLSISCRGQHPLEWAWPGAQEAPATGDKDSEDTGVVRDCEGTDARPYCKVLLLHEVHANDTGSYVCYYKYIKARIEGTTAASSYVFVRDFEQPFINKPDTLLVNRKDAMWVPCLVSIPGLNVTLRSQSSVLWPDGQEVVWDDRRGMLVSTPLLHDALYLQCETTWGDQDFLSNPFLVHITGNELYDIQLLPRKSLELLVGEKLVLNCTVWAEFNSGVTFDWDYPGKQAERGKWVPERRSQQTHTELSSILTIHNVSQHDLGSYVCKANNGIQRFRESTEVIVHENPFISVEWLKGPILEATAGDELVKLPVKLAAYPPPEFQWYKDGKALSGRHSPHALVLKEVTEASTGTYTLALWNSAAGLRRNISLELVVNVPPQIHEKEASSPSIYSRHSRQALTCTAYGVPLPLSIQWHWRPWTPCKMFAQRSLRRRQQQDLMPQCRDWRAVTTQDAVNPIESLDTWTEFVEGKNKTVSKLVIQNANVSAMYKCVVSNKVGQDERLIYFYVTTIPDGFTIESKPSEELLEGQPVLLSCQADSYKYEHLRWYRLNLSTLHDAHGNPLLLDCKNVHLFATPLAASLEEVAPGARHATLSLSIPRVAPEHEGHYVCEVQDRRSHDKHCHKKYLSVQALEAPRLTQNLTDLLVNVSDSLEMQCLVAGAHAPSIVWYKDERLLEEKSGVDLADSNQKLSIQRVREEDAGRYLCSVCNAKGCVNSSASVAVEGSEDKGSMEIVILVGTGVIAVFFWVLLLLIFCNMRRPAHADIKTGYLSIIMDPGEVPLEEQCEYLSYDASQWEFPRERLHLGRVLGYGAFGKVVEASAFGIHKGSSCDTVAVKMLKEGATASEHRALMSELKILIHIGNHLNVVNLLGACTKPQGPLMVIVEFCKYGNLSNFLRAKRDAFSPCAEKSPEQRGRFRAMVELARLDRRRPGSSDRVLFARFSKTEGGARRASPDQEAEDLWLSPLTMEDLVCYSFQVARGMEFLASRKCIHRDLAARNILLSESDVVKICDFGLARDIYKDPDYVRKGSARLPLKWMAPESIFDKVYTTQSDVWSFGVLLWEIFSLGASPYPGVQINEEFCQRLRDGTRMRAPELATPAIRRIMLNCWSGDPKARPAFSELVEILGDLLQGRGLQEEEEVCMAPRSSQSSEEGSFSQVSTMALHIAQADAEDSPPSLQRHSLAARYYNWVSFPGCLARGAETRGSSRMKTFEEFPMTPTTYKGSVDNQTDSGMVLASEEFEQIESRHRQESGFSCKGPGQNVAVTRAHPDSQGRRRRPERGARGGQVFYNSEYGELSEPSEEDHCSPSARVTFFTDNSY

[20] = biological target: Fibroblast growth factor receptor 1 (Homo sapiens, UniProt P11362); test: Inhibition of recombinant FGFR1 by ELISA
[21] = biological target: Aurora kinase B (Homo sapiens, UniProt Q96GD4); test: Inhibition of recombinant Aurora B by ELISA
[22] = biological target: Cyclin-dependent kinase 2 (Homo sapiens, UniProt P24941); test: Inhibition of CDK2 by SPA
[23] = biological target: Glycogen synthase kinase-3 beta (Homo sapiens, UniProt P49841); test: Inhibition of GSK3-beta
Sequence of Glycogen synthase kinase-3 beta (P49841 whole entry): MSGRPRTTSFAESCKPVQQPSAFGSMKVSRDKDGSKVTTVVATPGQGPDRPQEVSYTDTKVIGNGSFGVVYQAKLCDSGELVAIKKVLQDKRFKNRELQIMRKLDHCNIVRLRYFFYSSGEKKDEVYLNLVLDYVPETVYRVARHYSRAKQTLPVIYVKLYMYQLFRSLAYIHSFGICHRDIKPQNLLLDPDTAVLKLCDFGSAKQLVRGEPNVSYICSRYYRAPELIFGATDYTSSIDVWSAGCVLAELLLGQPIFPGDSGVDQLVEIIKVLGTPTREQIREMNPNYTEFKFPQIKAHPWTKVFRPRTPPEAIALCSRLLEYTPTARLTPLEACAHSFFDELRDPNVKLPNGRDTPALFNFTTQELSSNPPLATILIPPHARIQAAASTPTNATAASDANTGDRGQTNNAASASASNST

[24] = Inhibition of Chk; set-up: species or system Homo sapiens
[25] = biological target: c-Jun N-terminal kinase, JNK (Homo sapiens, UniProt P45983+P53779+P45984); test: Inhibition of JNK; assay type: protein assay
[26] = biological target: 3-phosphoinositide-dependent protein kinase 1 (Homo sapiens, UniProt O15530); test: Inhibition of PDK
Sequence of 3-phosphoinositide-dependent protein kinase 1 (O15530 whole entry): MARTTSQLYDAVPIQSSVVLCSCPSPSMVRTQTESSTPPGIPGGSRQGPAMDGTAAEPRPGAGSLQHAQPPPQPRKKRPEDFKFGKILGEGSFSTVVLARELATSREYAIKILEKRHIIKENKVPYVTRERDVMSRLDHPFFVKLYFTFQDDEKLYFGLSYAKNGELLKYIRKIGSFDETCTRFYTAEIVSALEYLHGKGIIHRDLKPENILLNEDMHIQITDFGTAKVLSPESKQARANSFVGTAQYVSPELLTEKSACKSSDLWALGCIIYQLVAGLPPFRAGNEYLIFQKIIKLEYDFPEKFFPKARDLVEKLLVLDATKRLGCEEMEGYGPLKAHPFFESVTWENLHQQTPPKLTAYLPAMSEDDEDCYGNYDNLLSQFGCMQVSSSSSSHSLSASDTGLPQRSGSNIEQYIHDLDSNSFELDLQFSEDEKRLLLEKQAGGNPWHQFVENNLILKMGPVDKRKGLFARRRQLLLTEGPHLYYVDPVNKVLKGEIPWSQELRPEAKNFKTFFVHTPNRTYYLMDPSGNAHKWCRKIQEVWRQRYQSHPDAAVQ

[27] = biological target: cAMP-dependent protein kinase (PKA) (Homo sapiens, UniProt P22694+P17612+P22612); test: Inhibition of PKA; assay type: protein assay
[28] = Inhibition of PI3K; set-up: species or system Homo sapiens
[29] = biological target: Protein kinase C alpha type (Homo sapiens, UniProt P17252); test: Inhibition of PKCalpha
[30] = Half life in rat at 20 mg/kg, po and 2 mg/kg, iv; assay type: ADME, organism-based; conditions: in vivo
[31] = as §1; assay type: ADME, organism-based, Canis lupus familiaris; conditions: male, in vivo
[32] = Volume of distribution in rat at 20 mg/kg, po and 2 mg/kg, iv; assay type: ADME, organism-based; conditions: in vivo, read-out: Vdss
[33] = as §2; assay type: ADME, organism-based, Canis lupus familiaris; conditions: male, in vivo, read-out: Vdss
[34] = Clearance in rat at 20 mg/kg, po and 2 mg/kg, iv; assay type: ADME, organism-based; conditions: in vivo
[35] = Clearance in male dog; assay type: ADME, organism-based, Canis lupus familiaris; conditions: in vivo
[36] = Bioavailability in rat at 20 mg/kg, po and 2 mg/kg, iv; assay type: ADME, organism-based; conditions: in vivo
[37] = system: NIH3T3; test: Antiproliferative activity against NIH 3T3 cells xenografted in athymic rat measured as inhibition of tumor volume at 10 mg/kg/day after 18 days; assay type: functional; conditions: NIH3T3, 432 h
[38] = Permeability from apical to basolateral side of NIH 3T3 cell; assay type: ADME, cell-based, NIH3T3; conditions: mouse, not told; read-out: permeability

SMILES: COc1ccc(Cl)c(Nc2ncnc3cc(OCCCN4CCOCC4)cc(OC4CCOCC4)c23)c1
IC50 [2]: 80 nM
IC50 [3]: 20 nM

SMILES: CC(C)Oc1cc(OCCCN2CCCC2)cc2ncnc(Nc3c(Cl)ccc4c3OCO4)c12
IC50 [2]: 150 nM
IC50 [4]: 1200 nM
IC50 [3]: < 4 nM

SMILES: CN1CCN(CCOc2cc(OC3CCOCC3)c3c(Nc4c(Cl)ccc5c4OCCO5)ncnc3c2)CC1
IC50 [3]: 65 nM

SMILES: CN1CCC(COc2cc(OC3CCOCC3)c3c(Nc4c(Cl)ccc5c4OCO5)ncnc3c2)CC1
IC50 [2]: 300 nM
clearance [9]: 132 mL/min/kg
AUC(0-t) at 24 h [1]: 31000 ng·h/mL
T1/2 [10]: 22 h
Vdss [11]: 38 L/kg
IC50 [4]: 2000 nM
bioavailability [12]: 57%
bioavailability [13]: 93%
Vd [14]: 23.4 L/kg
IC50 [3]: 6 nM

SMILES: COc1cc(OCCCN2CCCC2)cc2ncnc(Nc3c(Cl)ccc4c3OCO4)c12
IC50 [3]: 15 nM

SMILES: COc1ccc(Cl)c(Nc2ncnc3cc(OC)c(OC)cc23)c1
IC50 [3]: 250 nM

SMILES: CN1CCN(CCCOc2cc(OC3CCOCC3)c3c(Nc4c(Cl)ccc5c4OCO5)ncnc3c2)CC1
IC50 [2]: 200 nM
IC50 [4]: 1000 nM
IC50 [3]: < 4 nM

SMILES: COc1ccc(Cl)c(Nc2ncnc3cc(OC)cc(OC)c23)c1
IC50 [3]: 3700 nM

SMILES: Clc1ccc2c(c1Nc1ncnc3cc(OCCCN4CCCC4)cc(OC4CCOCC4)c13)OCO2
IC50 [2]: 150 nM
pKa [5]: 9.5
logD [6]: 2.3
solubility [7]: 1000 µM (≈ 527 µg/mL)
fraction unbound [8]: 0.16
fraction unbound [15]: 0.17
IC50 [16]: 270 nM
IC50 [17]: 3 nM
IC50 [18]: > 33000 nM
IC50 [19]: > 10000 nM
IC50 [20]: 37000 nM
IC50 [21]: 8900 nM
IC50 [22]: > 10000 nM
IC50 [23]: > 10000 nM
IC50 [24]: > 10000 nM
IC50 [25]: > 10000 nM
IC50 [26]: > 10000 nM
IC50 [27]: > 10000 nM
IC50 [28]: > 10000 nM
IC50 [29]: > 10000 nM
AUC(0-t) at 24 h [1]: 13000 ng·h/mL
half-life [30]: 3.5 h
half-life [31]: 29 h
Vd [32]: 15 L/kg
Vd [33]: 38 L/kg
IC50 [4]: 2500 nM
clearance [34]: 48.3 mL/min/kg
clearance [35]: 15 mL/min/kg
bioavailability [36]: 60%
bioavailability [12]: 85%
inhibition in vivo at 10 mg/kg/day [37]: 90%
Papp A→B [38]: > 1 ×10⁻⁶ cm/s
IC50 [3]: < 4 nM

SMILES: COc1cc(Oc2ccncc2)c2c(Nc3c(Cl)ccc4c3OCO4)ncnc2c1
IC50 [2]: 150 nM
AUC(0-t) at 24 h [1]: 100 ng·h/mL
IC50 [4]: 21500 nM
IC50 [3]: 9.5 nM

SMILES: COc1ccc(Cl)c(Nc2ncnc3cc(OCCCN4CCOCC4)cc(OC4CCCCC4)c23)c1
IC50 [2]: 2500 nM
IC50 [4]: 5500 nM
IC50 [3]: 20 nM

Next, values leading:

AUC(0-t) at 24 h [1]: 38000 ng·h/mL
SMILES: COc1cc2c(Nc3c(Cl)ccc4c3OCO4)ncnc2cc1OCC1CCN(C)CC1

IC50 [2]: 200 nM
AUC(0-t) at 24 h [1]: 600 ng·h/mL
IC50 [4]: > 10000 nM
IC50 [3]: 7 nM
SMILES: CC(C)COc1cc(OC2CCN(C)CC2)c2c(Nc3c(Cl)ccc4c3OCO4)ncnc2c1

IC50 [2]: 150 nM
pKa [5]: 8.2
logD [6]: 2.9
solubility [7]: > 1000 µM
fraction unbound [8]: 0.25
AUC(0-t) at 24 h [1]: 50 ng·h/mL
IC50 [4]: 21500 nM
IC50 [3]: 10 nM
SMILES: COc1cc(OC2CCN(C)CC2)c2c(Nc3c(Cl)ccc4c3OCO4)ncnc2c1

IC50 [4]: 100 nM
IC50 [3]: 40 nM
SMILES: c1cc(Nc2ncnc3cc(OCCCN4CCCC4)cc(OC4CCOCC4)c23)c2c(c1)OCO2

IC50 [3]: 110 nM
SMILES: Clc1ccc2c(c1Nc1ncnc3cc(OCCN4CCCC4)cc(OC4CCOCC4)c13)OCCO2

IC50 [2]: 500 nM
IC50 [4]: > 33000 nM
IC50 [3]: 55 nM
SMILES: Clc1ccc2c(c1Nc1ncnc3cccc(Oc4ccncc4)c13)OCO2

IC50 [2]: 70 nM
pKa [5]: 6.4
logD [6]: > 3.1
solubility [7]: 1.5 µM (≈ 0.781 µg/mL)
fraction unbound [8]: 0.017
AUC(0-t) at 24 h [1]: 6000 ng·h/mL
IC50 [4]: > 5000 nM
IC50 [3]: 3 nM
SMILES: Clc1ccc2c(c1Nc1ncnc3cc(OCCc4ccncc4)cc(OC4CCOCC4)c13)OCO2

IC50 [2]: 90 nM
IC50 [4]: > 20000 nM
IC50 [3]: 4 nM
SMILES: CN1CCC(Oc2cc(OCCF)cc3ncnc(Nc4c(Cl)ccc5c4OCO5)c23)CC1

IC50 [3]: 540 nM
SMILES: COc1ccc(Cl)c(Nc2ncnc3ccc(OC)c(OC4CCN(C)CC4)c23)c1

From ChEMBL document CHEMBL1137334 (J Med Chem, 2006)
